Data: PubChem BioAssay AID248 (DTP/NCI, 2004)
Toxic doses and inconclusive results are not listed. Cut-off read from the data, not from the text of the source: active = T/C of 150% or more; inactive = T/C below 125%.

Tested on: L1210 leukemia ip in BDF1 mice, survival T/C
Assay: NCI In Vivo Anticancer Drug Screen. Data for tumor model L1210 Leukemia (intraperitoneal) in B6D2F1 (BDF1) mice
Conditions: endpoint: mean survival time, higher = longer survival
Outline: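 Ratio derived from survival: compound-dosed mice over vehicle-dosed mice, all bearing a transplantable tumor.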

[1] = dose: 100.0 mg/kg/injection, schedule: Q01DX001 (ip), vehicle: Klucel (hydroxypropylcellulose) (HPC)
[2] = dose: 100.0 mg/kg/injection, schedule: Q01DX001 (ip), vehicle: saline
[3] = dose: 100.0 mg/kg/injection, schedule: Q04DX003 (ip), vehicle: Klucel (hydroxypropylcellulose) (HPC)
[4] = dose: 200.0 mg/kg/injection, schedule: Q01DX001 (ip), vehicle: Klucel (hydroxypropylcellulose) (HPC)
[5] = dose: 200.0 mg/kg/injection, schedule: Q01DX001 (ip), vehicle: saline
[6] = dose: 200.0 mg/kg/injection, schedule: Q04DX003 (ip), vehicle: Klucel (hydroxypropylcellulose) (HPC)
[7] = dose: 400.0 mg/kg/injection, schedule: Q01DX001 (ip), vehicle: saline
[8] = dose: 400.0 mg/kg/injection, schedule: Q04DX003 (ip), vehicle: Klucel (hydroxypropylcellulose) (HPC)
[9] = dose: 100.0 mg/kg/injection, schedule: Q04DX003 (ip), vehicle: saline with Tween-80
[10] = dose: 200.0 mg/kg/injection, schedule: Q04DX003 (ip), vehicle: saline with Tween-80
[11] = dose: 400.0 mg/kg/injection, schedule: Q04DX003 (ip), vehicle: saline with Tween-80
[12] = dose: 5.0 mg/kg/injection, schedule: Q01DX001 (ip), vehicle: saline
[13] = dose: 10.0 mg/kg/injection, schedule: Q01DX001 (ip), vehicle: saline
[14] = dose: 20.0 mg/kg/injection, schedule: Q01DX001 (ip), vehicle: saline
[15] = dose: 100.0 mg/kg/injection, schedule: Q04DX002 (ip), vehicle: saline with Tween-80
[16] = dose: 200.0 mg/kg/injection, schedule: Q04DX002 (ip), vehicle: saline with Tween-80
[17] = dose: 100.0 mg/kg/injection, schedule: Q04DX003 (ip), vehicle: saline
[18] = dose: 100.0 mg/kg/injection, schedule: Q01DX009 (ip), vehicle: saline with Tween-80
[19] = dose: 200.0 mg/kg/injection, schedule: Q01DX009 (ip), vehicle: saline with Tween-80
[20] = dose: 400.0 mg/kg/injection, schedule: Q01DX009 (ip), vehicle: saline with Tween-80

Measured: T/C

CC(C)C(N)C(=O)O (stereo unspecified)
inactive: dose: 50.0 mg/kg/injection, schedule: Q01DX001 (ip), vehicle: Klucel (hydroxypropylcellulose) (HPC) 97 % of control | dose: 75.0 mg/kg/injection, schedule: Q01DX001 (ip), vehicle: acetone 97 % of control | [1] 100 % of control | dose: 100.0 mg/kg/injection, schedule: Q01DX001 (ip), vehicle: carboxymethylcellulose (CMC) 96 % of control | [2] 95 % of control | [3] 98 % of control | dose: 150.0 mg/kg/injection, schedule: Q01DX001 (ip), vehicle: acetone 92 % of control | [4] 99 % of control | dose: 200.0 mg/kg/injection, schedule: Q01DX001 (ip), vehicle: carboxymethylcellulose (CMC) 96 % of control | [5] 100 % of control | [6] 107 % of control | dose: 300.0 mg/kg/injection, schedule: Q01DX001 (ip), vehicle: acetone 94 % of control | dose: 400.0 mg/kg/injection, schedule: Q01DX001 (ip), vehicle: carboxymethylcellulose (CMC) 94 % of control | [7] 92 % of control | [8] 100 % of control

C/C(C(=O)O)=C1\N=C(N)NC1=O
inactive: [1] 98 % of control | [4] 96 % of control | dose: 400.0 mg/kg/injection, schedule: Q01DX001 (ip), vehicle: Klucel (hydroxypropylcellulose) (HPC) 102 % of control

CCCCNC(=O)C(C)S(=O)(=O)c1ccc(C)cc1 (stereo unspecified)
inactive: [9] 100 % of control | [10] 100 % of control | [11] 98 % of control

CCOCc1cccc2ccccc12
inactive: [9] 106 % of control | [10] 98 % of control | [11] 102 % of control

COc1ccc(C23OC2Oc2cc(OC4CCCCO4)ccc2C3O)cc1 (stereo unspecified)
inactive: dose: 50.0 mg/kg/injection, schedule: Q01DX001 (sc), vehicle: steriod suspending solution 101 % of control | dose: 100.0 mg/kg/injection, schedule: Q01DX001 (sc), vehicle: steriod suspending solution 101 % of control | dose: 200.0 mg/kg/injection, schedule: Q01DX001 (sc), vehicle: steriod suspending solution 101 % of control | dose: 400.0 mg/kg/injection, schedule: Q01DX001 (sc), vehicle: steriod suspending solution 95 % of control

CC1(C)N=C(N)N=C(N)N1c1cccc(CCCCc2cccc(N)c2)c1
inactive: [12] 98 % of control | [13] 102 % of control | [14] 113 % of control

CCc1ccc(C(=O)c2ccccc2)c2c1C(=O)c1ccccc1C2=O
inactive: [15] 91 % of control | [16] 88 % of control | dose: 400.0 mg/kg/injection, schedule: Q04DX002 (ip), vehicle: saline with Tween-80 102 % of control

C[S+]1CCSCC1
inactive: dose: 25.0 mg/kg/injection, schedule: Q04DX003 (ip), vehicle: saline 90 % of control | dose: 50.0 mg/kg/injection, schedule: Q04DX003 (ip), vehicle: saline 87 % of control | [17] 117 % of control

CCN(CCN)c1cccc(C)c1
inactive: dose: 100.0 mg/kg/injection, schedule: Q04DX003 (ip), vehicle: saline sonified 92 % of control

C=CCNC(=S)C(C(=O)OC)C(=O)OC
inactive: [17] 103 % of control | dose: 200.0 mg/kg/injection, schedule: Q04DX003 (ip), vehicle: saline 100 % of control | dose: 400.0 mg/kg/injection, schedule: Q04DX003 (ip), vehicle: saline 100 % of control

O=C(OCCCC(C(=O)c1ccccc1)=P(c1ccccc1)(c1ccccc1)c1ccccc1)c1ccccc1
inactive: dose: 100.0 mg/kg/injection, schedule: Q01DX001 (ip), vehicle: saline with Tween-80 104 % of control | dose: 200.0 mg/kg/injection, schedule: Q01DX001 (ip), vehicle: saline with Tween-80 93 % of control | dose: 400.0 mg/kg/injection, schedule: Q01DX001 (ip), vehicle: saline with Tween-80 93 % of control

C[n+]1ccc2cc(N)c3c4ccccc4sc3c2c1
inactive: dose: 1.56 mg/kg/injection, schedule: Q01DX009 (ip), vehicle: saline with Tween-80 110 % of control | dose: 3.12 mg/kg/injection, schedule: Q01DX009 (ip), vehicle: saline with Tween-80 100 % of control | dose: 6.25 mg/kg/injection, schedule: Q01DX009 (ip), vehicle: saline with Tween-80 105 % of control | dose: 12.5 mg/kg/injection, schedule: Q04DX003 (ip), vehicle: saline with Tween-80 105 % of control | dose: 25.0 mg/kg/injection, schedule: Q04DX003 (ip), vehicle: saline with Tween-80 105 % of control | dose: 50.0 mg/kg/injection, schedule: Q04DX003 (ip), vehicle: saline with Tween-80 115 % of control

Nc1ccn(Cc2cccc3ccccc23)c(=O)n1
inactive: dose: 100.0 mg/kg/injection, schedule: Q04DX003 (ip), vehicle: gum acacia 93 % of control | dose: 200.0 mg/kg/injection, schedule: Q04DX003 (ip), vehicle: gum acacia 90 % of control | dose: 400.0 mg/kg/injection, schedule: Q04DX003 (ip), vehicle: gum acacia 90 % of control

CCN1CCC(CNc2cc(C)nc(/N=C(\N)Nc3ccc(Cl)c(Cl)c3)n2)C1 (stereo unspecified)
inactive: dose: 12.5 mg/kg/injection, schedule: Q04DX003 (ip), vehicle: Klucel (hydroxypropylcellulose) (HPC) 98 % of control | dose: 25.0 mg/kg/injection, schedule: Q04DX003 (ip), vehicle: Klucel (hydroxypropylcellulose) (HPC) 102 % of control | dose: 50.0 mg/kg/injection, schedule: Q04DX003 (ip), vehicle: Klucel (hydroxypropylcellulose) (HPC) 107 % of control

O=C(CC(=O)c1ccco1)c1ccco1
inactive: [2] 100 % of control | [5] 102 % of control | [7] 96 % of control

CCCCSN1CCCCC1
inactive: [15] 93 % of control | [16] 93 % of control

CC(=O)Nc1ccc(C=NCCN=Cc2ccc(NC(C)=O)cc2)cc1
inactive: [3] 97 % of control | [6] 88 % of control | [8] 88 % of control

Cc1cc(N(CCCOS(C)(=O)=O)CCCOS(C)(=O)=O)ccc1C=Nc1cccc(Br)c1
inactive: [18] 96 % of control | [19] 94 % of control | [20] 91 % of control

O=C(/C=C/c1ccccc1)N1CCCCC1
inactive: [18] 93 % of control | dose: 100.0 mg/kg/injection, schedule: Q04DX002 (ip), vehicle: Klucel (hydroxypropylcellulose) (HPC) 108 % of control | [19] 95 % of control | dose: 200.0 mg/kg/injection, schedule: Q04DX002 (ip), vehicle: Klucel (hydroxypropylcellulose) (HPC) 101 % of control | [20] 102 % of control

O=c1ccn(C2SC(CO)C(O)C2O)c(=O)[nH]1 (stereo unspecified)
inactive: dose: 50.0 mg/kg/injection, schedule: Q01DX001 (ip), vehicle: saline 108 % of control | [2] 100 % of control | [5] 88 % of control | [7] 108 % of control

COc1cc([N+](=O)[O-])ccc1NC(=O)Nc1ccc(Cl)cc1[N+](=O)[O-]
inactive: dose: 100.0 mg/kg/injection, schedule: Q01DX009 (ip), vehicle: Klucel (hydroxypropylcellulose) (HPC) 100 % of control | dose: 200.0 mg/kg/injection, schedule: Q01DX009 (ip), vehicle: Klucel (hydroxypropylcellulose) (HPC) 95 % of control | dose: 400.0 mg/kg/injection, schedule: Q01DX009 (ip), vehicle: Klucel (hydroxypropylcellulose) (HPC) 90 % of control

CN=C(NC)c1ccc(Cl)c(Cl)c1
inactive: [3] 96 % of control | [6] 98 % of control

CC(=O)Nc1ccc(S(=O)(=O)SC(F)(F)F)cc1
inactive: [12] 97 % of control | [13] 98 % of control | [14] 101 % of control

CN(N=Nc1ccccc1C(=O)NN)C1CCCCC1
inactive: dose: 100.0 mg/kg/injection, schedule: Q01DX009 (ip), vehicle: other 117 % of control | dose: 200.0 mg/kg/injection, schedule: Q01DX009 (ip), vehicle: other 114 % of control
